Columns and labels:
[1] = biological target: Sigma receptor (Cavia porcellus); assay: Binding affinity against sigma sites in guinea pig membrane using [3H]DTG as the radioligand
[2] = biological target: Sigma non-opioid intracellular receptor 1 (Cavia porcellus); assay: Binding affinity against sigma sites in guinea pig membrane using [3H](+)-3-PPP as the radioligand

Clc1ccc(OCCN2C3CCC2c2c([nH]c4ccccc24)C3)cc1 (configuration not stated) [1-(4-chlorophenoxy)-2-[9,15-diazatetracyclo[10.2.1.02,10.03,8]pentadeca-2(10),3,5,7-tetraen-15-yl]ethane]
IC50 [1]: 251 nM | IC50 [2]: 4880 nM

c1ccc(OCCN2C3CCC2c2c([nH]c4ccccc24)C3)cc1 (configuration not stated) [1-[9,15-diazatetracyclo[10.2.1.02,10.03,8]pentadeca-2(10),3,5,7-tetraen-15-yl]-2-phenoxyethane]
IC50 [1]: 110 nM | IC50 [2]: 534 nM

c1ccc(OCCCN2C3CCC2c2c([nH]c4ccccc24)C3)cc1 (configuration not stated) [1-[9,15-diazatetracyclo[10.2.1.02,10.03,8]pentadeca-2(10),3,5,7-tetraen-15-yl]-3-phenoxypropane]
IC50 [1]: 132 nM | IC50 [2]: 262 nM

c1csc(CCCCN2C3CCC2c2c([nH]c4ccccc24)C3)c1 (configuration not stated) [1-[9,15-diazatetracyclo[10.2.1.02,10.03,8]pentadeca-2(10),3,5,7-tetraen-15-yl]-4-(2-thienyl)butane]
IC50 [1]: 21 nM | IC50 [2]: 98 nM

c1ccc(OCCCCN2C3CCC2c2c([nH]c4ccccc24)C3)cc1 (configuration not stated) [1-[9,15-diazatetracyclo[10.2.1.02,10.03,8]pentadeca-2(10),3,5,7-tetraen-15-yl]-4-phenoxybutane]
IC50 [1]: 88 nM | IC50 [2]: 205 nM

c1ccc(CCCCCN2C3CCC2c2c([nH]c4ccccc24)C3)cc1 (configuration not stated) [1-[9,15-diazatetracyclo[10.2.1.02,10.03,8]pentadeca-2(10),3,5,7-tetraen-15-yl]-5-phenylpentane]
IC50 [1]: 107 nM | IC50 [2]: 348 nM

c1ccc(CCCCN2C3CCC2c2c(n(Cc4ccccc4)c4ccccc24)C3)cc1 (configuration not stated) [1-[9-benzyl-9,15-diazatetracyclo[10.2.1.02,10.03,8]pentadeca-2(10),3,5,7-tetraen-15-yl]-4-phenylbutane]
IC50 [1]: 267 nM | IC50 [2]: 396 nM

CC(C)n1c2c(c3ccccc31)C1CCC(C2)N1CCCCc1ccccc1 (configuration not stated) [1-[9-isopropyl-9,15-diazatetracyclo[10.2.1.02,10.03,8]pentadeca-2(10),3,5,7-tetraen-15-yl]-4-phenylbutane]
IC50 [1]: 231 nM | IC50 [2]: 705 nM

O=C1c2ccccc2C(=O)N1CCCN1C2CCC1c1c([nH]c3ccc(F)cc13)C2 (configuration not stated) [2-{3-[5-fluoro-9,15-diazatetracyclo[10.2.1.02,10.03,8]pentadeca-2(10),3,5,7-tetraen-15-yl]propyl}-1,3-isoindolinedione]
IC50 [1]: 836 nM | IC50 [2]: 3330 nM

OCCCN1C2CCC1c1c([nH]c3ccc(F)cc13)C2 (configuration not stated) [3-[5-fluoro-9,15-diazatetracyclo[10.2.1.02,10.03,8]pentadeca-2(10),3,5,7-tetraen-15-yl]-1-propanol]
IC50 [1]: 317 nM | IC50 [2]: 1380 nM

Fc1ccc2[nH]c3c(c2c1)C1CCC(C3)N1Cc1ccccc1 (configuration not stated) [15-benzyl-5-fluoro-9,15-diazatetracyclo[10.2.1.02,10.03,8]pentadeca-2(10),3,5,7-tetraene]
IC50 [1]: 86 nM | IC50 [2]: 908 nM

Reference: BindingDB's records for doi:10.1021/jm00055a005 (Scios Nova, 1993)
